Laboratory results as given in publication PMC12677652, “Procyanidin B3 and Its Derivatives Alleviate Neuronal Injury by Targeting G3BP1 for Ischemic Stroke Therapy” (Advanced Science, 2025).

How the values were obtained:
[1] = target: T1, G3BP1 (Mus musculus, UniProt P97855); assay: Pull-down analysis with PB3-BP probe in HT22 lysates; type: binding; conditions: 200 µM PB3‐BP, blocked by free PB3
T1 construct: endogenous in cells; host or cells: HT22 cell lysate
Procedure: HT22 cells were grown to 90% confluency and harvested by trypsin and resuspended in 1 mL PBS (containing protease inhibitors and 0.1% Triton X‐100). The samples were subjected to three freeze–thaw cycles in liquid nitrogen. Each cell lysate was centrifuged (12000 g for 30 min at 4 °C), and the supernatant was collected. The protein concentrations were determined by a BCA protein assay kit (Thermo Scientific, USA). The lysates were adjusted to 2 mg mL^−1 and treated with 200 µM PB3 or DMSO, labeled with 200 µM of PB3‐BP or DMSO, and then put on ice under UV radiation at 365 nm for 1 h. The labeled proteins were precipitated with chloroform‐methanol. Then the precipitations were resuspended with 1.2% SDS/PBS and combined with 300 µM biotin‐PEG3‐azide, 100 µM tris(benzyltriazolylmethyl)amine, 1 mM tris(2‐carboxyethyl)phosphine hydrochloride, and 1 mM CuSO4 for 1 h. After this reaction, the proteomes were extracted again with chloroform‐methanol. The proteins were solubilized with 1.2% SDS/PBS and diluted 5x with PBS. The solubilized proteins were incubated with streptavidin beads (100 µL of slurry, Thermo Scientific, USA) at room temperature for 3 h with rotation. […] The eluted proteins were analyzed by SDS‐polyacrylamide gel electrophoresis and immunoblotted with anti‐G3BP1 antibody.

[2] = system: OGD/R‐treated HT22 cells; assay: Neuroprotective effect on OGD/R-treated HT22 cells, cell viability by CCK-8; type: cell-based; conditions: for viability at 2 µM / viability at 20 µM: Mus musculus, HT-22, 6 h OGD, 24 h reoxygenation with compound, relative to control cells, mean ± S.D., n = 3
Procedure: HT22 cells were washed with phosphate buffered saline (PBS), then DMEM sugar‐free medium (Gibco, USA) was added and placed in the anaerobic incubator of 5% CO2, 1% O2, and 37 °C for 6 h. PB3 or other compounds were previously dissolved in DMEM/F‐12 with 10% FBS and 1% penicillin/streptomycin. After undergoing OGD for 6 h, the medium was replaced by DMEM/F‐12 with 10% FBS and 1% penicillin/streptomycin containing PB3 or other compounds and kept in a humidified 5% CO2, 37 °C incubator for 24 h.
The CCK‐8 assay kit (Yeasen, China) was used to assess cell viability. All operations were performed following instructions. HT22 cells were seeded into the 96‐well plate (3000 cells per well). The cells were cultured at 37 °C with 5% CO2 in a humidified incubator overnight. After 6 h of OGD, the medium was replaced by DMEM/F‐12 with 10% FBS and 1% penicillin/streptomycin containing PB3 or other compounds and kept in a humidified 5% CO2, 37 °C incubator for 24 h. Then, the cells were washed with PBS, the medium was replaced with DMEM/F‐12 with 10% FBS and 1% penicillin/streptomycin containing 10% CCK‐8 solution, and incubated for 1 h at 37 °C. The absorbance was assessed by a Synergy H1 multi‐mode microplate reader (BioTek, USA) at 450 nm.

[3] = type: physicochemical
Procedure: Furthermore, a small‐molecule procyanidin B3‐benzophenone probe (PB3‐BP, 2, Figure 2G) was synthesized based on a non‐protective condensation strategy (Scheme S1, Supporting Information).^[ [29] ^] The stability of compound 2 is poor, and its structure is determined by 2D‐NMR after acetylation (Figure S4, Supporting Information). […] To identify the specific targeting sites of PB3 on G3BP1, the ultraviolet‐crosslinked complex of PB3‐BP/G3BP1 was digested with trypsin and subjected to LC‐MS/MS analysis.^[ [30] ^] […] To evaluate the affinity between the wild type and four mutants (L105A, R107A, Q134A, D135A) ^[ [34] ^] of the G3BP1 NTF2L domain and PB3, molecular dynamics simulations were performed to analyze each complex system based on docking results.^[ [35] ^]

T1 sequence (P97855 whole entry): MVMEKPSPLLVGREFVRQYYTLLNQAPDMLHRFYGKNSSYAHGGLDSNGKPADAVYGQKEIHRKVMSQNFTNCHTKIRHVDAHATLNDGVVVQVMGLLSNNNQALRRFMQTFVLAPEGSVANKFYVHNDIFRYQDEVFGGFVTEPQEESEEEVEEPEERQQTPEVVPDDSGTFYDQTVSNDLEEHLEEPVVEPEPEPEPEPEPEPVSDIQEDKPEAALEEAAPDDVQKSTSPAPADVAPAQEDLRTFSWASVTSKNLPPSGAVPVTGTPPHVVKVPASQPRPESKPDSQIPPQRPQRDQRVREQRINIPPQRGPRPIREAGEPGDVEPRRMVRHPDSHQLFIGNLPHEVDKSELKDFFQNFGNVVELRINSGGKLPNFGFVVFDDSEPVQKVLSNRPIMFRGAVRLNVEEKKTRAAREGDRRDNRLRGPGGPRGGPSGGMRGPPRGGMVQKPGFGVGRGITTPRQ

pull-down of G3BP1 [1] | stability [3] | Structure (SMILES) | neuroprotective activity ([2]; 100 µM, OGD/R‐treated HT22 cells) | viability at 2 µM [2] | viability at 20 µM [2]
pulled down | poor | C#CCN(Cc1ccc(C(=O)c2ccccc2)cc1)C(=O)COc1cc(O)c([C@@H]2c3c(O)cc(O)cc3O[C@H](c3ccc(O)c(O)c3)[C@H]2O)c2c1C[C@H](O)[C@@H](c1ccc(O)c(O)c1)O2 [Compound 2, N‐(4‐Benzoylbenzyl)‐2‐(((2R,2′R,3S,3′S,4S)‐2,2′‐bis(3,4‐dihydroxyphenyl)‐3,3′,5,7,7′‐pentahydroxy‐[4,8′‐bichroman]‐5′‐yl)oxy)‐N‐(prop‐2‐yn‐1‐yl)acetamide] | retained the neuroprotective activity of PB3 | – | –
– | – | Cc1c(O)cc(O)c2c1O[C@H](c1ccc(O)c(O)c1)[C@@H](O)[C@@H]2c1c(O)cc(O)c2c1O[C@H](c1ccc(O)c(O)c1)[C@@H](O)C2 [Compound 6a, 8‐Methyl‐(+)‐Catechin‐(4α,8)‐(+)‐Catechin] | – | 56.7 ± 2.22% | 70.2 ± 2.92%
– | – | CCc1c(O)cc(O)c2c1O[C@H](c1ccc(O)c(O)c1)[C@@H](O)[C@@H]2c1c(O)cc(O)c2c1O[C@H](c1ccc(O)c(O)c1)[C@@H](O)C2 [Compound 6b, 8‐Ethyl‐(+)‐Catechin‐(4α,8)‐(+)‐Catechin] | – | 62 ± 9.21% | 73.6 ± 4.78%
– | – | CCCc1c(O)cc(O)c2c1O[C@H](c1ccc(O)c(O)c1)[C@@H](O)[C@@H]2c1c(O)cc(O)c2c1O[C@H](c1ccc(O)c(O)c1)[C@@H](O)C2 [Compound 6d, 8‐Propyl‐(+)‐Catechin‐(4α,8)‐(+)‐Catechin] | – | 62.1 ± 3.73% | 78.8 ± 1.43%
– | – | CC(C)Cc1c(O)cc(O)c2c1O[C@H](c1ccc(O)c(O)c1)[C@@H](O)[C@@H]2c1c(O)cc(O)c2c1O[C@H](c1ccc(O)c(O)c1)[C@@H](O)C2 [Compound 6e, 8‐Isobutyl‐(+)‐Catechin‐(4α,8)‐(+)‐Catechin] | – | 58.5 ± 8.12% | 67 ± 2.7%
– | – | Oc1ccc([C@H]2Oc3c(-c4ccccc4)c(O)cc(O)c3[C@@H](c3c(O)cc(O)c4c3O[C@H](c3ccc(O)c(O)c3)[C@@H](O)C4)[C@@H]2O)cc1O [Compound 6f, 8‐Phenyl‐(+)‐Catechin‐(4α,8)‐(+)‐Catechin] | – | 59.7 ± 7.43% | 70.4 ± 7.72%
– | – | Oc1ccc([C@H]2Oc3c(-c4ccncc4)c(O)cc(O)c3[C@@H](c3c(O)cc(O)c4c3O[C@H](c3ccc(O)c(O)c3)[C@@H](O)C4)[C@@H]2O)cc1O [Compound 6g, 8‐(Pyridin‐4‐yl)‐(+)‐Catechin‐(4α,8)‐(+)‐Catechin] | – | 55.9 ± 8.56% | 71.4 ± 1.74%
– | – | Oc1ccc([C@H]2Oc3c(-c4cccnc4)c(O)cc(O)c3[C@@H](c3c(O)cc(O)c4c3O[C@H](c3ccc(O)c(O)c3)[C@@H](O)C4)[C@@H]2O)cc1O [Compound 6h, 8‐(Pyridin‐3‐yl)‐(+)‐Catechin‐(4α,8)‐(+)‐Catechin] | – | 58.8 ± 7.12% | 75.3 ± 4.68%
– | – | CC(=O)O[C@H]1[C@H](c2c(O)cc(O)c3c2O[C@H](c2ccc(O)c(O)c2)[C@@H](OC(C)=O)C3)c2c(O)cc(O)cc2O[C@@H]1c1ccc(O)c(O)c1 [Compound 8, 3‐O‐Acetyl‐(+)‐Catechin‐(4α,8)‐[3‐O‐Acetyl‐(+)‐Catechin]] | – | 62 ± 5.58% | 69.3 ± 6.73%
– | – | COc1cc(OC)c2c(c1)O[C@H](c1ccc(OC)c(OC)c1)[C@@H](O)[C@@H]2c1c(OC)cc(OC)c2c1O[C@H](c1ccc(OC)c(OC)c1)[C@@H](O)C2 [Compound 9, 5,7,3′,4′‐Tetra‐O‐Methyl‐(+)‐Catechin‐(4α, 8)‐[5,7,3′,4′‐Tetra‐O‐Methyl‐(+)‐Catechin]] | – | 52.6 ± 7.34% | 66.8 ± 1.89%
– | – | COc1cc([C@H]2Oc3cc(O)cc(O)c3[C@@H](c3c(O)cc(O)c4c3O[C@H](c3ccc(O)c(O)c3)[C@@H](O)C4)[C@@H]2O)ccc1O [Compound 13a, 3′‐O‐Methyl‐(+)‐Catechin‐(4α,8)‐(+)‐Catechin] | – | 59.6 ± 2.82% | 65.5 ± 4.74%
– | – | COc1ccc([C@H]2Oc3cc(O)cc(O)c3[C@@H](c3c(O)cc(O)c4c3O[C@H](c3ccc(O)c(O)c3)[C@@H](O)C4)[C@@H]2O)cc1O [Compound 13b, 4′‐O‐Methyl‐(+)‐Catechin‐(4α,8)‐(+)‐Catechin] | – | 57.5 ± 7.11% | 70.54 ± 0.41%
– | – | COc1cc([C@H]2Oc3c(c(O)cc(O)c3[C@@H]3c4c(O)cc(O)cc4O[C@H](c4ccc(O)c(O)c4)[C@H]3O)C[C@@H]2O)ccc1O [Compound 13c, (+)‐Catechin‐(4α,8)‐[3′‐O‐Methyl‐(+)‐Catechin]] | – | 66.2 ± 10.6% | 66.1 ± 2.9%
– | – | COc1ccc([C@H]2Oc3c(c(O)cc(O)c3[C@@H]3c4c(O)cc(O)cc4O[C@H](c4ccc(O)c(O)c4)[C@H]3O)C[C@@H]2O)cc1O [Compound 13d, (+)‐Catechin‐(4α,8)‐[4′‐O‐Methyl‐(+)‐Catechin]] | – | 63 ± 6.27% | 69 ± 8.76%
– | – | CC1=NN(c2ccccc2)C(=O)C1 [EDA, edaravone, reference compound] | – | 60.8 ± 7.4% | 71.5 ± 9.84%
